Values joined by “and” are separate entries in the source; they are usually repeats but may differ in a detail not shown here. Equal values may be shown once.
Key:
[1] = system: NF κB; test: NF κB activation caused by chemotherapeutic agent in OVCAR-3 cells; format: cell-based, human; design: level of active NF κB (as percents of control) in the absence of CMA: concentration or dose not given beside the values; details: for level of active NF κB (as percents of control) in the presence of CMA: its salt or ester 1 × 10^−12 M
Method: (§1) The level of active NF κB in cell extract was measured with StressXpress NF κB, p50 ELISA Kit (StressGen, cat. No EKS-445) and luminescent spectrophotometer SM 2203 (Solar, Belarus).
The experiments were performed as described in Example 1. The human ovarian carcinoma cell lines OVCAR-3 was used. The cells were incubated at 37° C. in RPMI 1640 medium supplemented with 10% embryonic calf serum. […] Corresponding chemical agent or the vehicle (control) was added to the culture medium simultaneously with CMA, its salt or ester (1×10^−12 M). The cells were separated by centrifugation. The level of active NF κB was assessed in nuclear lysate.

[2] = system: SK-OV-3 cells; test: Survival of nude mice intraperitoneally injected with SK-OV-3 cells; format: in vivo; details: 0 mg/kg CMA
[3] = system: NF κB; test: Level of active NF κB in cancer cells of ascitic fluid of SK-OV-3 tumor-bearing nude mice; format: in vivo; details: 0 mg/kg CMA
Method: as §1
To study the ability of different amounts of CMA to inhibit the NF κB activity, tumor growth and to increase the survival rate in combination with a chemotherapeutic agent, BALB/c female nude mice (6 to 8 weeks of age) were intraperitoneally injected with SK-OV-3 cells (1×10^7 cells/0.5 ml media/mouse). The all mice were divided into the several groups of animals (32 animals per group) which were treated with different doses of CMA, its salts or its ester. All mice were injected also ether with vehicle (diluent) or with chemotherapeutic agent or with or combinations of chemotherapeutic agent. Some groups were injected additionally with one or other aromatase inhibior, along with chemotherapeutic agent. Cisplatin (CP) was administered at dose 5 mg/kg intraperitoneally once weekly for the first 3 weeks; Doxorubicin (Dox) was given 8 mg/kg intravenously on days 0 and 7; Paclitaxel (Pcl) was injected intravenously at dose 10 mg/kg body weight thrice weekly, on alternate days for 4 weeks; 10 mg/kg/day. Toremifen was administered per os at dose 10 mg/kg/day in starch gel. Anastozole was injected subcutaneously with 5 μg of […] in 0.1 mL of PBS. CMA was administered once a day on each second day.
Also, the day of 50% survival rate was scored for other 16 animals in each group group. The serum alpha interferon (alpha IFN) level was measured 2 hours after first administration of CMA, its salts or it ester. Mouse IFN-alpha was measured in serum was detected (in pg/ml) using the enzyme-linked immunosorbent assay kit purchased from PBL Biomedical Laboratories (USA, Piscataway, N.J.).

[4] = system: ovarian cancer; test: Clinical case reports of combined therapy of ovarian cancer (Examples 7-9); format: in vivo, human; details: Example 7: stage III patient; 2 courses of cisplatin alone
[5] = system: alpha interferon; test: Serum alpha interferon in SK-OV-3 tumor-bearing nude mice (ELISA); format: in vivo; details: 0 mg/kg CMA
[6] = system: NF κB; test: Level of active NF κB in primary human ovarian cancer cells from ascitic fluid (StressXpress NF κB p50 ELISA); format: cell-based; details: 8 hours
[7] = system: ovarian cancer; details: intraperitoneal alpha-interferon in combination with carboplatinum; cited from earlier work
[8] = system: ovarian cancer; details: gamma-interferon added to cisplatinum+cyclophosphamide; cited from earlier work

In the case of `N.N.[Cl][Pt][Cl]` [Cisplatin, cisplatin], the “level of active NF κB (as percents of control) in the absence of CMA” value ([1]; Cisplatin alone) is reported as 117% and 121% and 120% and 119% and 118% and 125% and 122%, the “day when 50% of animals in the group were still alive” value (shortened to “day when 50% of animals”) ([2]; Cisplatin (CP) alone) is reported as 34 days and 44 days and 42 days and the “level of NF kB (mean)” value ([3]; Cisplatin (CP) alone) is reported as 380 percent from the control and 356 percent from the control and 420 percent from the control. The clinical outcome [4] was “No therapy effects were observed” and the “interferon level (mean)” value ([5]; Cisplatin (CP) alone) was 4 pg/mL and 2 pg/mL and 3 pg/mL.
For `O=P1(N(CCCl)CCCl)NCCCO1` (centres unmarked) [Cyclophosphamide, cyclophosphamide], the “level of active NF κB (as percents of control) in the absence of CMA” value ([1]; Cyclophosphamide alone) was 221% and 217% and 210% and 214%.
With `COc1cccc2c1C(=O)c1c(O)c3c(c(O)c1C2=O)C[C@@](O)(C(=O)CO)C[C@@H]3O[C@H]1C[C@H](N)[C@H](O)[C@H](C)O1` [Doxorubicin, doxorubicin] the “level of active NF κB (as percents of control) in the absence of CMA” value ([1]; Doxorubicin alone) was 524% and 538% and 550% and 497% and 562% and 540% and 531%, the “day when 50% of animals” value ([2]; Doxorubicin (Dox) alone) was 36 days and 37 days and 43 days and the “level of NF kB (mean)” value ([3]; Doxorubicin (Dox) alone) was 450 percent from the control and 470 percent from the control and 430 percent from the control. For the same compound, the “interferon level (mean)” value ([5]; Doxorubicin (Dox) alone) was 3 pg/mL and 4 pg/mL and 5 pg/mL.
For `CC(=O)O[C@H]1C(=O)[C@@]2(C)[C@H]([C@H](OC(=O)c3ccccc3)[C@]3(O)C[C@H](OC(=O)[C@H](O)[C@@H](NC(=O)c4ccccc4)c4ccccc4)C(C)=C1C3(C)C)[C@]1(OC(C)=O)CO[C@@H]1C[C@@H]2O` [Paclitaxel, paclitaxel, reference compound], the “day when 50% of animals” value ([2]; Paclitaxel (Pcl) alone) was 41 days and 40 days and 38 days, the “level of NF kB (mean)” value ([3]; Paclitaxel (Pcl) alone) was 420 percent from the control and 411 percent from the control and 442 percent from the control and the “interferon level (mean)” value ([5]; Paclitaxel (Pcl) alone) was 8 pg/mL and 6 pg/mL and 5 pg/mL.
For `CCCOC(=O)Cn1c2ccccc2c(=O)c2ccccc21` [PropCMA], the “active NF κB (in percents of control)” value ([6]; 1 × 10^−10 M, Patient 1) was 32%/10, the “active NF κB (in percents of control)” value ([6]; 1 × 10^−10 M, Patient 2) was 31%/20 and the “active NF κB (in percents of control)” value ([6]; 1 × 10^−10 M, Patient 3) was 36%/20. For the same compound, the “active NF κB (in percents of control)” value ([6]; 1 × 10^−12 M, Patient 1) was 68%/10, the “active NF κB (in percents of control)” value ([6]; 1 × 10^−12 M, Patient 2) was 59%/20 and the “active NF κB (in percents of control)” value ([6]; 1 × 10^−12 M, Patient 3) was 64%/20. For the same compound, the “active NF κB (in percents of control)” value ([6]; 1 × 10^−13 M, Patient 1) was 89%/0, the “active NF κB (in percents of control)” value ([6]; 1 × 10^−13 M, Patient 2) was 91%/0 and the “active NF κB (in percents of control)” value ([6]; 1 × 10^−13 M, Patient 3) was 81%/0. For the same compound, the “level of active NF κB (as percents of control) in the presence of CMA” value ([1]; 5-FU + CMA) was 86%, the “level of active NF κB (as percents of control)” value ([1]; CMA, its salt or ester 1 × 10^−12 M + Vechicle) was 84% and the “level of active NF κB (as percents of control) in the presence of CMA” value ([1]; Cisplatin + CMA) was 66%. For the same compound, the “level of active NF κB (as percents of control) in the presence of CMA” value ([1]; Cyclophosphamide + CMA) was 95% and the “level of active NF κB (as percents of control) in the presence of CMA” value ([1]; Doxorubicin + CMA) was 178%.
For alpha-interferon, the “efficacy in respect of ovarian cancer” value [7] is listed as “did not prove any efficacy”.
In the case of “gamma-interferon: cytokine immunomodulator with antiviral and antitumor activity”, the “number of patients who had no progression within the 3 year period” value [8] is given as 51%.
